{"source": "patent US6852692B1", "about": "“Composition for promoting passive extension of bladder smooth muscle” (Shionogi & Co., Ltd., priority 1999, dated 2005)", "key": {"urinary bladder strips [1]": {"tested_on": "urinary bladder strips", "test": "Extension of rat urinary bladder strips under 1 g tension (isotonic transducer)", "settings": "100 nM adrenomedullin in Tyrode's solution, tension 1 g, male rat bladder strips, repeated five times, FIG. 2", "excerpt": "8 to 16 weeks old male rats were sacrificed by hammering their heads. Thereafter, the rats were decapitated, followed by exsanguination. The urinary bladders were isolated from the rats. Each isolated urinary bladder was cut into four portions, thereby obtaining urinary bladder strips (FIG. 1).\nThe effect of adrenomedullin on the rat urinary bladder was examined by measuring contractions of the urinary bladder strips using an isotonic transducer TD-112S (manufactured Nippon Kohden Corporation) where the tension was 1 g.\nThe urinary bladder strips were firstly immersed in 30 ml of Tyrode's solution with 100 nM adrenomedullin (experimental sample) or without it (control sample). In this situation, the sections were attached to the […] transducer where the tension was 1 g, to continuously measure relaxation of the urinary bladder. The composition of the Tyrode's solution is as follows: 139 mM NaCl, 2.7 mM KCl, 11.9 mM NaHCO3, 2.6 mM MgCl2.6H2O, 0.4 mM NaH2PO4.2H2O, 1.7 mM CaCl2, and 5.5 mM glucose; pH 7.4).\nThe above-described experiment was repeated five times. Solid colored circles indicate the results of the experimental sample, while plain circles indicate averages of the control sample. Vertical bars indicate the standard deviation of a two-way analysis of variance. The vertical axis indicates the length of relaxation (mm), while the horizontal axis indicate time (minutes)."}, "urinary bladder strips [2]": {"tested_on": "urinary bladder strips", "test": "Static tension and acetylcholine-induced contraction of rat urinary bladder strips (isometric transducer)", "description": "Urinary bladder strips were prepared in a manner similar to that of Example 1. The urinary bladder sections were attached to an isometric transducer FD pickup TB611T (manufactured by Nippon Kohden Corporation) in Tyrode's solution. Contraction of the urinary bladder was continuously measured. Firstly, 30 nM to 1 mM acetylcholine was added to the Tyrode's solution. […] In FIG. 3, the vertical axis indicates tension (unit: g), while the horizontal axis indicates time. Contraction induced by acetylcholine was confirmed, followed by washing out acetylcholine. Thereafter, 100 nM adrenomedullin was added to the Tyrode's solution. […] Further, 30 nM to 1 mM acetylcholine was added to the Tyrode's solution. As a result, recontraction of the urinary bladder occured."}, "mesenteric artery": {"tested_on": "mesenteric artery", "settings": "Nakamura et al., Jpn. J. Pharmacol. 67, 259-262 (1995), FIG. 1; cited from earlier work"}, "urinary bladder": {"tested_on": "urinary bladder", "settings": "Nishimura et al., British J. Pharmacology, 120, 193-200 (1997), FIG. 6; cited from earlier work"}}}
{"substance": "adrenomedullin: synthesized peptide consisting of an amino acid sequence from Tyr in position 1 to Tyr in position 50 of SEQ ID NO: 6 (rat-derived)", "values": [{"measurement": "extension (length of relaxation) of the urinary bladder wall versus absence of adrenomedullin", "setting": "urinary bladder strips [1]", "result": "more extended"}, {"measurement": "contraction (static tension) of the urinary bladder after addition of adrenomedullin alone", "setting": "urinary bladder strips [2]; 100 nM adrenomedullin in Tyrode's solution, after washing out acetylcholine, FIG. 3", "result": "not contracted"}, {"measurement": "contraction induced by acetylcholine in the presence of adrenomedullin versus acetylcholine alone", "setting": "urinary bladder strips [2]; 100 nM adrenomedullin, 30 nM to 1 mM acetylcholine", "result": "not significantly different"}, {"measurement": "extension of contracted mesenteric artery by addition of adrenomedullin", "setting": "mesenteric artery", "result": "extended by addition of adrenomedullin in a concentration-dependent manner"}, {"measurement": "contraction or extension (active extension) of the urinary bladder on addition of adrenomedullin", "setting": "urinary bladder", "result": "does not cause contraction or extension"}]}
